Measured values as given in EP4342890A1, “PLATFORM AND SCAFFOLD FOR FAP TARGETING AGENTS” (Erasmus University Rotterdam Medical Center, priority 2022, dated 2024).

Assays:
[1] = target: T1, PREP (Homo sapiens, UniProt P48147); experiment: In vitro inhibition assay on PREP (Z-GP-AMC substrate); assay type: biochemical; settings: enzymatic assay; 20 µM substrate, 2 nM PREP; unit inferred
T1 sequence (P48147 1-710): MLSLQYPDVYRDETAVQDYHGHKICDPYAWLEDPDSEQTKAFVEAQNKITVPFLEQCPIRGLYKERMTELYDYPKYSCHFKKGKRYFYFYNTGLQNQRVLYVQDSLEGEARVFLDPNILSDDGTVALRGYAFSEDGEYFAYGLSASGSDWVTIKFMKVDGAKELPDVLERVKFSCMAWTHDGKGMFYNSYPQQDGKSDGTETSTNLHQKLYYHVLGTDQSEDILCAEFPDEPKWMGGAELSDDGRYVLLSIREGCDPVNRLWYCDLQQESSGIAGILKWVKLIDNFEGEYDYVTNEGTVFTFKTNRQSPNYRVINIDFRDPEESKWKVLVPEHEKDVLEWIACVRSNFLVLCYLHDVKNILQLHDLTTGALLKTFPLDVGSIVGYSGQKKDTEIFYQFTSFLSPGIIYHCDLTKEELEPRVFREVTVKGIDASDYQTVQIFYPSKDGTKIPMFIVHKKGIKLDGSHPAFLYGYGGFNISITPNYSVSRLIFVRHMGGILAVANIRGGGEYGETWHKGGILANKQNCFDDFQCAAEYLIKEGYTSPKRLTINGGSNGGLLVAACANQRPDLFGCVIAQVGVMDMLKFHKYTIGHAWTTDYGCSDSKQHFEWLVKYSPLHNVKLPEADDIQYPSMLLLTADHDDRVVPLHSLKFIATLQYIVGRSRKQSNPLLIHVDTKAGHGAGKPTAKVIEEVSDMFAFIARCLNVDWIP
Description: Enzymatic activity of PREP on the Z-GP-AMC substrate was measured at room temperature on a Hidex microplate reader by monitoring the fluorescence at an excitation wavelength of 360 nm and an emission wavelength of 465 nm. The reaction mixture contained 20 µM substrate, 2 nM PREP, assay buffer (50 mM Tris, 100 mM NaCl, 1 mM EDTA, pH 7.4) and tested compound (serial dilution from 10-6 to 10-12) in a total volume of 50 µL.

[2] = target: DPP4 (Homo sapiens, UniProt P27487); experiment: In vitro inhibition assay on DPP4 (Z-GP-pNA substrate); assay type: biochemical; settings: enzymatic assay; 20 µM Z-GP-pNA; unit inferred
Sequence of DPP4 (P27487 39-766): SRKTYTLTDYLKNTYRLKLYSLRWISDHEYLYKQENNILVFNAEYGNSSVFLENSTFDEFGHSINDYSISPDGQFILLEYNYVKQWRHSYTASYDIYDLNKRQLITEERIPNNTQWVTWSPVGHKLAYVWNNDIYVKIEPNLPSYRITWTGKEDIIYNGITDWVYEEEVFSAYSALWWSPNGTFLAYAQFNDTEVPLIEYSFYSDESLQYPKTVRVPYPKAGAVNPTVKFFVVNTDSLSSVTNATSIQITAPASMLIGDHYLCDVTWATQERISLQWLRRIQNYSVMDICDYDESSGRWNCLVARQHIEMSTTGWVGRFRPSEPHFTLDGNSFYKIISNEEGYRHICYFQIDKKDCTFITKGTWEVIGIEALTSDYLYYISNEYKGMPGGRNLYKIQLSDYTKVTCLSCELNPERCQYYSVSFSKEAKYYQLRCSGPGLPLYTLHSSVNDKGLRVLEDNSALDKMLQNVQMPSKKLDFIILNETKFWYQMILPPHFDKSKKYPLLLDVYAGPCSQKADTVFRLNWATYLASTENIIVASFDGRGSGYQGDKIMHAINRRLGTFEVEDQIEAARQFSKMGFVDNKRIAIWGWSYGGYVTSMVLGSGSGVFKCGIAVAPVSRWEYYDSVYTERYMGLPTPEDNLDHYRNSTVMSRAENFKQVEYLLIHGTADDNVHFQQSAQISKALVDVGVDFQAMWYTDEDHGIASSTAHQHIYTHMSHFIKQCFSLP

[3] = target: T2, FAP (Homo sapiens, UniProt Q12884); experiment: Competitive binding assay against [111In]In-FAPI-46 in HT-1080.hFAP cells; parameters: expressed in transfected cells; host or cells: HT-1080.hFAP cells; settings: competition with [111In]In-FAPI-46 in HT-1080.hFAP cells, 37 °C, 1 h; unit inferred
T2 sequence (Q12884 1-760): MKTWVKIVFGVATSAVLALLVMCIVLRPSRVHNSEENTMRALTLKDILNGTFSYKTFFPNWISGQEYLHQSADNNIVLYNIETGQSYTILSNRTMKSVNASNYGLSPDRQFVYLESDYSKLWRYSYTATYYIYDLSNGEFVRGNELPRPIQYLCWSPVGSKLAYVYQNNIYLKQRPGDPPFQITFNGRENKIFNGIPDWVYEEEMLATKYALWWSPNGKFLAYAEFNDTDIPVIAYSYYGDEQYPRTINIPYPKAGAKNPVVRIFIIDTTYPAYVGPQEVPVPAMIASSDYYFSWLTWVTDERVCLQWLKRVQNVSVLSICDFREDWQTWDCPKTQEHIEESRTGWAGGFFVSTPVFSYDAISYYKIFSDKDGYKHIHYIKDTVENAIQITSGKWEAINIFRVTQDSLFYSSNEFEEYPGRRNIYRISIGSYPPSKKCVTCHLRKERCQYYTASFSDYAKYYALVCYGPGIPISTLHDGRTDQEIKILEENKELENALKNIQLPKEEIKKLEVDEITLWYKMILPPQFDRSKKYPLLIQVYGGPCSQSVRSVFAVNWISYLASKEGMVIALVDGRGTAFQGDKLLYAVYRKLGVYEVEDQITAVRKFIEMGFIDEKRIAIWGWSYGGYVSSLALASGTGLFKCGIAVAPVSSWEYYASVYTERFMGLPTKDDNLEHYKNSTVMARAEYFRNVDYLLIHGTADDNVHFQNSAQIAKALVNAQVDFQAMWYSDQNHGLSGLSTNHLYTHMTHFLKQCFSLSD
Description: The U-87 MG glioblastoma was cultured at 37 °C and 5% CO2 in Dulbecco's Modified Eagle Medium (DMEM) supplemented with 10 % (v/v) fetal calf serum. HT-1080.hFAP cells were kept in culture in DMEM medium supplemented with fetal bovine serum (10%, FBS) and antibiotic antimycotic (1%, AA) at 37 °C and 5% CO2. For passaging, cells were detached using Trypsin-EDTA 0.05% when reaching 90% confluence and re-seeded at a dilution of 1:4.
Competition binding experiments were conducted by incubation of the [^111In]In-FAPI-46 radioligand with increasing concentrations of eFAP compound in HT-1080.hFAP cells at 37 °C for 1 h. Cells were then washed three times with binding buffer and lysed. The cell-associated radioactivity was measured in a γ-counter. The IC50 values were calculated by fitting the data by non-linear regression using GraphPad Prism.

[4] = tested on: HT-1080.hFAP tumor; experiment: Biodistribution study in HT-1080.hFAP tumor bearing mice; assay type: in vivo; settings: indium-111 labelled
Source text: Six-week-old male Balb/c nu/nu-specific and opportunistic pathogen-tree (SOPF) mice were housed in individually ventilated cages, with 4 mice per cage. Upon arrival, mice were acclimated for 1 week, with access to food and water ad libitum. Mice were subcutaneously inoculated on the right shoulder with U-87 or HT-1080.hFAP cells (1 × 10^6 cells). Xenografts were allowed to grow until they reached an appropriate size at the start of the studies. All animal experiments were approved by the Animal Welfare Committee of the Erasmus MC and were conducted in agreement with institutional guidelines (license number: AVD101002017867).
Biodistribution studies were performed to determine tumor and organ uptake of the radiolabeled eFAP compounds. Animals (n = 4 for each time point and each compound) were injected intravenously with an average of 100 kBq/0.5 nmol at t=0. At 3 selected time points (1, 4 and 24 h) p.i. blood was collected via cardiac puncture under isoflurane/O2 anesthesia, after which the mice were sacrificed. The tumor and organs of interest (prostate, pancreas, spleen, gall bladder, liver, stomach, small intestine, coecum, colon, adrenals, kidney, lung, heart, salivary glands, muscle, bone, brain were excised, washed in PBS and blotted dry. The blood, tumor, and relevant organs were weighed and measured in a γ-counter. To determine the total injected radioactivity per animal, calibration curve with indium-111 and lutetium-177 were determined. The percentage of injected dose per gram (% ID/g) was determined for each tissue sample and corrected for both the injected volume and % ID present at the injection site (the tail).
Comparison of the biodistribution in selected organs of [^111In]In-FAPI-46 and [^111In]In-eFAP-6 in HT-1080.hFAP tumor bearing mice are given in Figure 8.

[5] = intravenous, HT-1080.hFAP tumor bearing mice

N#C[C@@H]1CC(F)(F)CN1C(=O)CNC(=O)c1ccnc2c(OCCCNC(=O)CN3CCN(CC(=O)O)CCN(CC(=O)O)CCN(CC(=O)O)CC3)cccc12 [eFAP-6, (S)-2,2',2"-(10-(2-((3-((4-((2-(2-Cyano-4,4-difluoropyrrolidin-1-yl)-2-oxoethyl)carbamoyl)quinolin-8-yl)oxy)propyl)amino)-2-oxoethyl)-1,4,7,10-tetraazacyclododecane-1,4,7-triyl)triacetic acid]
IC50 [1]: 108 ± 42 nM | IC50 [2]: > 10000 nM | IC50 [3]: 0.66 nM | tumor targeting performance ([4]; compared with the clinical reference): comparable with that of FAPI-46 | background uptake in healthy organs [4, 5]: low background uptake in healthy organs | tumor uptake [4, 5]: high and rapid tumor uptake | clearance from the body ([4]; intravenous, mice): rapid clearance from the body
